This passage reports IC50 results from publication PMC6164663, “Flavonoids as Putative Epi-Modulators: Insight into Their Binding Mode with BRD4 Bromodomains Using Molecular Docking and Dynamics” (Biomolecules, 2018).

The experiment deals with T1, BRD4 (Homo sapiens, UniProt O60885).
T1 construct: tandem (BD1 + BD2)
Description: AlphaScreen binding assay with H4 peptide ([…]) K5/[…] Ac, duplicate dose-response (IC50 […]). The note with it: read-out: DATA 2. In general terms: Alpha assays give light when donor and acceptor beads are brought close together.

Molecules are shown by their SMILES. pIC50: −log10 of the molar value.

With `O=c1cc(-c2ccc(O)c(-c3c(O)cc(O)c4c(=O)cc(-c5ccc(O)cc5)oc34)c2)oc2cc(O)cc(O)c12` [amentoflavone], the pIC50 is 4.52.
